Experimental data reported in PMC4144425, “Discovery of a novel iota carrageenan sulfatase isolated from the marine bacterium Pseudoalteromonas carrageenovora” (Frontiers in Chemistry, 2014).

Molecular target: T1, Recombinant ι-CgsA (Pseudoalteromonas carrageenovora, UniProt A0A2K4X859)
T1 construct: gene PCARR_a1089; without signal peptide (cleavage Ala22/Gln23 predicted in the Q3IKL4 ortholog), N-terminal 6 His-tag, pFO4 vector, E. coli BL21(DE3); primers for cloning deduced from the P. haloplanktis TAC 125 gene
T1 sequence (A0A2K4X859 entry or part of it): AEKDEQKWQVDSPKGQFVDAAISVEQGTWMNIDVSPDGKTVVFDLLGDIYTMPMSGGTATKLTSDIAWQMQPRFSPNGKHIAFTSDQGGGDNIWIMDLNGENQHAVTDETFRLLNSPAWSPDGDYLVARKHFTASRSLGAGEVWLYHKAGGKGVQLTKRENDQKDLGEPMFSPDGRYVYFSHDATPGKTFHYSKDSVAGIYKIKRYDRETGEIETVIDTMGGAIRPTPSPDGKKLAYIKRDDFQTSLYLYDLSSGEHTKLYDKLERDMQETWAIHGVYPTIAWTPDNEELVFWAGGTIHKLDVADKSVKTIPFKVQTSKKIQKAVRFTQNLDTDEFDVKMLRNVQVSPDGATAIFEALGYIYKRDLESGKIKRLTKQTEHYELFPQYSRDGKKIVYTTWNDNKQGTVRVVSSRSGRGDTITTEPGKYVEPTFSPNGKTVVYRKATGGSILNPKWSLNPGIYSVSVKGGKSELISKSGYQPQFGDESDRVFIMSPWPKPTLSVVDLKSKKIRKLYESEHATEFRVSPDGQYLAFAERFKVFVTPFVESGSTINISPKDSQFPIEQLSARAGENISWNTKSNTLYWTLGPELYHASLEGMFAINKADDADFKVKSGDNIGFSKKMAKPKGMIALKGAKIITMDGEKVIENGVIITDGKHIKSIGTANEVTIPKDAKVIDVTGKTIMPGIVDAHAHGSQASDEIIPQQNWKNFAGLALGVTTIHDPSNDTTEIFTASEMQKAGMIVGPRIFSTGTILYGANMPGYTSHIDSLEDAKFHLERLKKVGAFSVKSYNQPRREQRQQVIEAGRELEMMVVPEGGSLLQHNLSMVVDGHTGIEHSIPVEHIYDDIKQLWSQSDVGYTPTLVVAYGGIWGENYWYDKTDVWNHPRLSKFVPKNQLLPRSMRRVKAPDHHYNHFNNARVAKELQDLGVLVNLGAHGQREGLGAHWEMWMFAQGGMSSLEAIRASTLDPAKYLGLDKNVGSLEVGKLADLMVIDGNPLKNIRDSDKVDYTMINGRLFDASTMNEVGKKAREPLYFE
Test: methylumbelliferone release, absorbance at […] nm; hyperbolic regression
Format: biochemical
Conditions: 35 °C, pH 8.3, 50 mM Tris-HCl, 200 mM NaCl; MUFS 5.2 to 206.5 μM; preliminary; read-out: Apparent Km

SMILES: Cc1cc(=O)oc2cc(OS(=O)(=O)O)ccc12 [MUFS]
- Km: 13.4 ± 4.9 µM
